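In this assay, cells in 96-well plates receive the compound at five concentrations for 48 hours. Endpoints are linearly interpolated between the surrounding concentrations. GI50: concentration for 50% inhibition of growth. TGI denotes the concentration required for complete inhibition of growth.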
Assays:
Assay in all cases: NCI anticancer screen, dose series, 48 h
[1] = test system: OVCAR-5 ovarian
[2] = test system: CAKI-1 renal
[3] = test system: SF-295 CNS
[4] = test system: SNB-75 CNS
[5] = test system: ACHN renal
[6] = test system: SN12C renal
[7] = test system: BT-549 breast
[8] = test system: DU-145 prostate
[9] = test system: UACC-62 melanoma
[10] = test system: SR leukemia
[11] = test system: A498 renal
[12] = test system: SK-MEL-28 melanoma
[13] = test system: SK-OV-3 ovarian
[14] = test system: MOLT-4 leukemia
[15] = test system: HT29 colon
[16] = test system: PC-3 prostate
[17] = test system: CCRF-CEM leukemia
[18] = test system: MDA-MB-435
[19] = test system: SF-539 CNS
[20] = test system: TK-10 renal
[21] = test system: NCI/ADR-RES ovarian
[22] = test system: OVCAR-4 ovarian
[23] = test system: HCT-15 colon
[24] = test system: HS 578T breast
[25] = test system: IGROV1 ovarian
[26] = test system: HOP-62 NSCLC
[27] = test system: RPMI-8226 leukemia
[28] = test system: A549 NSCLC
[29] = test system: EKVX NSCLC
[30] = test system: SK-MEL-2 melanoma
[31] = test system: SF-268 CNS
[32] = test system: HCT-116 colon
[33] = test system: MCF7 breast
[34] = test system: NCI-H460 lung
[35] = test system: SNB-19 CNS
[36] = test system: NCI-H522 lung
[37] = test system: RXF 393 renal
[38] = test system: HL-60(TB) leukemia
[39] = test system: SW-620 colon
[40] = test system: U251 CNS
[41] = test system: LOX IMVI melanoma
[42] = test system: OVCAR-3 ovarian
[43] = test system: NCI-H23 lung
[44] = test system: UO-31 renal
[45] = test system: KM12 colon
[46] = test system: MDA-MB-231 breast
[47] = test system: M14 melanoma
[48] = test system: T-47D breast
[49] = test system: UACC-257 melanoma
[50] = test system: SK-MEL-5 melanoma
[51] = test system: K-562 leukemia
[52] = test system: HOP-92 NSCLC
[53] = test system: 786-0 renal
[54] = test system: NCI-H226 lung
[55] = test system: COLO 205 colon
[56] = test system: OVCAR-8 ovarian
[57] = test system: HCC-2998 colon
[58] = test system: MALME-3M melanoma

CCCc1cn2c(/C=N/N=C(N)N)c(-c3ccc(Cl)c([N+](=O)[O-])c3)nc2s1
TGI [1]: 2.89 µM
TGI [2]: 3.28 µM
TGI [3]: 3.1 µM
TGI [4]: 3.12 µM
TGI [5]: 3.06 µM
TGI [6]: 3.33 µM
TGI [7]: 3.08 µM
TGI [8]: 3.15 µM
TGI [9]: 3.38 µM
TGI [10]: 2.75 µM
TGI [11]: 3.2 µM
TGI [12]: 3.1 µM
TGI [13]: 2.86 µM
TGI [14]: 0.546 µM
TGI [15]: 2.04 µM
TGI [16]: 3.53 µM
TGI [17]: 0.375 µM
TGI [18]: 3.21 µM
TGI [19]: 3.31 µM
TGI [20]: 2.91 µM
TGI [21]: 4.95 µM
TGI [22]: 2.28 µM
TGI [23]: 3.07 µM

C=C1CC2C3C=C(C)C4=CC(=O)CC[C@]4(C)C3CC[C@]2(C)[C@@]1(OC(C)=O)C(C)=O (some centres undefined)
GI50 [24]: 43.5 µM
TGI [24]: > 100 µM
GI50 [1]: > 100 µM
TGI [1]: > 100 µM
GI50 [2]: 2.96 µM
TGI [2]: > 100 µM
GI50 [25]: > 100 µM
TGI [25]: > 100 µM
GI50 [4]: 8.76 µM
TGI [4]: > 100 µM
GI50 [6]: 1.16 µM
TGI [6]: > 100 µM
GI50 [26]: 7.76 µM
TGI [26]: > 100 µM
GI50 [27]: 1.25 µM
TGI [27]: 5.6 µM
GI50 [8]: > 100 µM
TGI [8]: > 100 µM
GI50 [9]: 3.38 µM
TGI [9]: > 100 µM
GI50 [10]: 3.19 µM
TGI [10]: > 100 µM
GI50 [28]: 2.63 µM
TGI [28]: > 100 µM
GI50 [11]: > 100 µM
TGI [11]: > 100 µM
GI50 [29]: 2.1 µM
TGI [29]: > 100 µM
GI50 [30]: > 100 µM
TGI [30]: > 100 µM
GI50 [16]: 2.55 µM
TGI [16]: > 100 µM
GI50 [17]: 2.11 µM
TGI [17]: > 100 µM
GI50 [31]: 5.46 µM
TGI [31]: > 100 µM
GI50 [20]: > 100 µM
TGI [20]: > 100 µM
GI50 [32]: 3.38 µM
TGI [32]: > 100 µM
GI50 [33]: 4.16 µM
TGI [33]: > 100 µM
GI50 [34]: 3.69 µM
TGI [34]: > 100 µM
GI50 [35]: > 100 µM
TGI [35]: > 100 µM
GI50 [21]: 2.43 µM
TGI [21]: > 100 µM
GI50 [22]: 2.91 µM
TGI [22]: > 100 µM
GI50 [36]: 4.21 µM
TGI [36]: > 100 µM
GI50 [37]: 4.31 µM
TGI [37]: > 100 µM
GI50 [38]: 2.55 µM
TGI [38]: 5.53 µM

Cc1c2c(nn1-c1ccc(S(=O)(=O)NC(=S)NC(=O)c3ccccc3)cc1)-c1ccccc1CC2
GI50 [1]: > 100 µM
TGI [1]: > 100 µM
GI50 [2]: 16.1 µM
TGI [2]: 51.9 µM
GI50 [39]: > 100 µM
TGI [39]: > 100 µM
GI50 [25]: > 100 µM
TGI [25]: > 100 µM
GI50 [40]: 43.3 µM
TGI [40]: > 100 µM
GI50 [3]: 17.4 µM
TGI [3]: 48.6 µM
GI50 [4]: 59.5 µM
TGI [4]: > 100 µM
GI50 [5]: 41 µM
TGI [5]: > 100 µM
GI50 [6]: 34.4 µM
TGI [6]: > 100 µM
GI50 [41]: 50.3 µM
TGI [41]: > 100 µM
GI50 [26]: > 100 µM
TGI [26]: > 100 µM
GI50 [27]: 36.3 µM
TGI [27]: > 100 µM
GI50 [8]: 23.9 µM
TGI [8]: > 100 µM
GI50 [9]: 29 µM
TGI [9]: > 100 µM
GI50 [10]: 0.759 µM
TGI [10]: > 100 µM
GI50 [28]: 54.1 µM
TGI [28]: > 100 µM
GI50 [42]: 13.7 µM
TGI [42]: 41.4 µM
GI50 [43]: 53.9 µM
TGI [43]: > 100 µM
GI50 [44]: > 100 µM
TGI [44]: > 100 µM
GI50 [45]: 34.5 µM
TGI [45]: > 100 µM
GI50 [12]: 41.1 µM
TGI [12]: > 100 µM
GI50 [46]: 42.5 µM
TGI [46]: > 100 µM
GI50 [47]: > 100 µM
TGI [47]: > 100 µM
GI50 [13]: > 100 µM
TGI [13]: > 100 µM
GI50 [14]: > 100 µM
TGI [14]: > 100 µM
GI50 [48]: 44.9 µM
TGI [48]: > 100 µM
GI50 [15]: > 100 µM
TGI [15]: > 100 µM
GI50 [30]: > 100 µM
TGI [30]: > 100 µM
GI50 [16]: 42 µM
TGI [16]: > 100 µM
GI50 [17]: > 100 µM
TGI [17]: > 100 µM
GI50 [49]: 10.7 µM
TGI [49]: 47.4 µM
GI50 [31]: 29.3 µM
TGI [31]: > 100 µM
GI50 [18]: 27.9 µM
TGI [18]: 91.4 µM
GI50 [50]: 30.7 µM
TGI [50]: 96.5 µM
GI50 [20]: 28.9 µM
TGI [20]: 78.5 µM
GI50 [51]: 6.09 µM
TGI [51]: > 100 µM
GI50 [52]: > 100 µM
TGI [52]: > 100 µM
GI50 [33]: 35.9 µM
TGI [33]: > 100 µM
GI50 [53]: > 100 µM
TGI [53]: > 100 µM
GI50 [34]: 45.1 µM
TGI [34]: > 100 µM
GI50 [35]: 96.4 µM
TGI [35]: > 100 µM
GI50 [21]: > 100 µM
TGI [21]: > 100 µM
GI50 [22]: > 100 µM
TGI [22]: > 100 µM
GI50 [36]: 50.4 µM
TGI [36]: > 100 µM
GI50 [54]: 60.2 µM
TGI [54]: > 100 µM
GI50 [55]: 44.9 µM
TGI [55]: > 100 µM
GI50 [23]: 39.5 µM
TGI [23]: > 100 µM
GI50 [56]: 72.4 µM
TGI [56]: > 100 µM
GI50 [38]: 3.85 µM
TGI [38]: > 100 µM
GI50 [57]: 89.2 µM
TGI [57]: > 100 µM

CC(C)(C)c1cc(-c2nc3ccc(N4CCN(CCO)CC4)cc3[nH]2)cc(C(C)(C)C)c1O
GI50 [24]: 1.73 µM
TGI [24]: 4.68 µM
GI50 [2]: 1.97 µM
TGI [2]: 4.45 µM
GI50 [25]: 3.25 µM
TGI [25]: > 100 µM
GI50 [4]: 1.21 µM
TGI [4]: 4.55 µM
GI50 [5]: 3.39 µM
TGI [5]: > 100 µM
GI50 [6]: 3.77 µM
TGI [6]: > 100 µM
GI50 [41]: 1.86 µM
TGI [41]: 3.43 µM
GI50 [8]: 4.08 µM
TGI [8]: > 100 µM
GI50 [9]: 1.73 µM
TGI [9]: 3.22 µM
GI50 [10]: 2.77 µM
TGI [10]: > 100 µM
GI50 [28]: 3.51 µM
TGI [28]: > 100 µM
GI50 [42]: 3.36 µM
TGI [42]: > 100 µM
GI50 [11]: 6.1 µM
TGI [11]: > 100 µM
GI50 [43]: 4.65 µM
TGI [43]: > 100 µM
GI50 [12]: 1.68 µM
TGI [12]: 3.1 µM
GI50 [13]: 12.7 µM
TGI [13]: 86.1 µM
GI50 [48]: 2.86 µM
TGI [48]: > 100 µM
GI50 [30]: 2.39 µM
TGI [30]: 5.73 µM
GI50 [58]: 1.47 µM
TGI [58]: 2.83 µM
GI50 [19]: 2.13 µM
TGI [19]: 4.91 µM
GI50 [50]: 1.74 µM
TGI [50]: 3.14 µM
GI50 [20]: 4.69 µM
TGI [20]: > 100 µM
GI50 [52]: 1.41 µM
TGI [52]: 4.44 µM
GI50 [35]: 3.48 µM
TGI [35]: > 100 µM
GI50 [21]: > 100 µM
TGI [21]: > 100 µM
GI50 [54]: 21.5 µM
TGI [54]: > 100 µM
GI50 [55]: 2.21 µM
TGI [55]: 4.78 µM
GI50 [23]: 1.55 µM
TGI [23]: 3.05 µM
GI50 [56]: 6.53 µM
TGI [56]: > 100 µM
GI50 [38]: 1.84 µM
TGI [38]: 4.86 µM
